Results on two compounds are retold here after publication PMC12081877 (Nature Communications, 2025).

The subject of one assay is a panel of M^pro mutants. The class given is biochemical, SARS-CoV-2.
The test system of a further assay is ISM3312 P18 virus. The class given is cell-based, SARS-CoV-2.

Consider `Cn1cnc(Cn2c(=O)[nH]/c(=N\c3cc4cn(C)nc4cc3Cl)n(Cc3cc(F)c(F)cc3F)c2=O)n1` [Ensitrelvir], for which the resistance level entry in the assay on a panel of M^pro mutants is “moderate- to high-levels resistance”.
Consider `CC(C)(C)[C@H](NC(=O)C(F)(F)F)C(=O)N1C[C@H]2[C@@H]([C@H]1C(=O)N[C@H](C#N)C[C@@H]1CCNC1=O)C2(C)C` [Nirmatrelvir], for which the “resistance level against the ISM3312 P18 virus” value in the assay with ISM3312 P18 virus is given as “no resistance (key: white, no resistance ( < threefold); light blue, low-level resistance (3- to 10-fold); Medium blue, moderate-level resistance (10- to 50-fold); dark blue, high-level resistance ( > 50-fold))”.
